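Tested at 5 concentrations; 48 h exposure; 96-well plates; endpoints linearly interpolated, else capped at highest concentration. Here, GI50 denotes the concentration required for 50% inhibition of growth.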 The source made the active and inactive calls. No stated cut-off is given here; in the data, active = GI50 up to about 1.1 µM and inactive = higher.
Key:
Assay in all cases: inhibition of tumour cell growth, NCI panel, 48 h
OVCAR-5 = tested on: OVCAR-5
PC-3 = tested on: PC-3
SR = tested on: SR
MDA-MB-231 = tested on: MDA-MB-231
HOP-92 = tested on: HOP-92
SNB-75 = tested on: SNB-75
NCI/ADR-RES = tested on: NCI/ADR-RES
UACC-257 = tested on: UACC-257
MDA-MB-435 = tested on: MDA-MB-435
HL-60 = tested on: HL-60
HT-29 = tested on: HT-29
SK-MEL-28 = tested on: SK-MEL-28
NCI-H226 = tested on: NCI-H226
OVCAR-8 = tested on: OVCAR-8
786-0 = tested on: 786-0
RXF 393 = tested on: RXF 393
SF-295 = tested on: SF-295
COLO 205 = tested on: COLO 205
HCT-116 = tested on: HCT-116
IGROV-1 = tested on: IGROV-1

Row | Structure (SMILES) | GI50 (OVCAR-5) | GI50 (PC-3) | GI50 (SR) | GI50 (MDA-MB-231) | GI50 (HOP-92) | GI50 (SNB-75) | GI50 (NCI/ADR-RES) | GI50 (UACC-257) | GI50 (MDA-MB-435) | GI50 (HL-60) | GI50 (HT-29) | GI50 (SK-MEL-28) | GI50 (NCI-H226) | GI50 (OVCAR-8) | GI50 (786-0) | GI50 (RXF 393) | GI50 (SF-295) | GI50 (COLO 205) | GI50 (HCT-116) | GI50 (IGROV-1)
1 | O=C1c2ccccc2NC(c2cc(Cl)cc(Cl)c2O)N1CCc1ccccn1 (stereo not given) | > 100 µM (inactive) | 24 µM (inactive) | 47.5 µM (inactive) | > 100 µM (inactive) | 52.7 µM (inactive) | 42.6 µM (inactive) | 60.4 µM (inactive) | 97.9 µM (inactive) | 68.1 µM (inactive) | > 100 µM (inactive) | 80.9 µM (inactive) | > 100 µM (inactive) | > 100 µM (inactive) | 80.2 µM (inactive) | 60.1 µM (inactive) | 44.7 µM (inactive) | > 100 µM (inactive) | > 100 µM (inactive) | 67 µM (inactive) | > 100 µM (inactive)
2 | O=C1CSC(c2ccccc2O)N1c1ccc(-n2c(-c3ccccc3)nc3ccccc3c2=O)cc1 (stereo not given) | 30.8 µM (inactive) | 12.9 µM (inactive) | 21.4 µM (inactive) | 4.76 µM (inactive) | 20.8 µM (inactive) | 54.1 µM (inactive) | 21 µM (inactive) | 26.7 µM (inactive) | 24.4 µM (inactive) | 21.6 µM (inactive) | 27.1 µM (inactive) | 28.4 µM (inactive) | 25 µM (inactive) | 24.3 µM (inactive) | 20.1 µM (inactive) | 42.7 µM (inactive) | 16.4 µM (inactive) | 30.3 µM (inactive) | 11 µM (inactive) | 25.5 µM (inactive)
3 | COC1(OC)C=CC(=O)C=C1 | 10.4 µM (inactive) | 3.27 µM (inactive) | 0.843 µM (active) | 2.9 µM (inactive) | 4.43 µM (inactive) | 11 µM (inactive) | 4.2 µM (inactive) | 2.4 µM (inactive) | 3.31 µM (inactive) | 3.15 µM (inactive) | 3.11 µM (inactive) | 1.85 µM (inactive) | 2.61 µM (inactive) | 1.83 µM (inactive) | 1.9 µM (inactive) | 0.701 µM (active) | 11 µM (inactive) | 7.69 µM (inactive) | 1.3 µM (inactive) | 1.72 µM (inactive)
4 | COC(=O)C1=C(C(=O)OC)SC(=C2SC3=C(SC(=C4SCCS4)S3)S2)S1 | > 100 µM (inactive) | > 100 µM (inactive) | > 100 µM (inactive) | > 100 µM (inactive) | > 100 µM (inactive) | 0.0302 µM (active) | > 100 µM (inactive) | > 100 µM (inactive) | > 100 µM (inactive) | > 100 µM (inactive) | > 100 µM (inactive) | > 100 µM (inactive) | > 100 µM (inactive) | > 100 µM (inactive) | > 100 µM (inactive) | > 100 µM (inactive) | > 100 µM (inactive) | > 100 µM (inactive) | > 100 µM (inactive) | > 100 µM (inactive)
5 | COc1cc(C2S/C(=C/c3ccccc3)C(=O)N2c2cc(Cl)c(Cl)cc2Cl)cc(OC)c1OC (stereo not given) | 41.4 µM (inactive) | 26.8 µM (inactive) | 25.3 µM (inactive) | > 66.8 µM (inactive) | 13.7 µM (inactive) | 2.56 µM (inactive) | 30.6 µM (inactive) | 54.5 µM (inactive) | 34 µM (inactive) | 20.4 µM (inactive) | 46.2 µM (inactive) | > 64 µM (inactive) | 20.6 µM (inactive) | 40 µM (inactive) | 38.3 µM (inactive) | > 100 µM (inactive) | 49.3 µM (inactive) | 53.6 µM (inactive) | 23.5 µM (inactive) | 23.9 µM (inactive)
6 | O=C(CSc1nc2ccccc2c(=O)n1-c1ccccc1)N/N=C1\C(=O)Nc2ccc(Br)cc21 | 2.92 µM (inactive) | 1.84 µM (inactive) | 15.6 µM (inactive) | 1.65 µM (inactive) | 2.7 µM (inactive) | 3.01 µM (inactive) | 2.99 µM (inactive) | 5.94 µM (inactive) | 5.71 µM (inactive) | 3.21 µM (inactive) | 1.69 µM (inactive) | 3.35 µM (inactive) | 12.1 µM (inactive) | 1.85 µM (inactive) | 1.95 µM (inactive) | 2.62 µM (inactive) | 2.81 µM (inactive) | 3.74 µM (inactive) | 2.26 µM (inactive) | 2.14 µM (inactive)
7 | Cc1cccc(CP(Cc2cccc(C)c2)CC2(Cp3c4ccccc4c4ccccc43)COC2)c1 | > 100 µM (inactive) | 0.935 µM (active) | 1.15 µM (inactive) | 1.3 µM (inactive) | 1.99 µM (inactive) | 0.501 µM (active) | 53.7 µM (inactive) | 8.97 µM (inactive) | 5.71 µM (inactive) | 0.332 µM (active) | 0.485 µM (active) | 13 µM (inactive) | 4.11 µM (inactive) | 1.78 µM (inactive) | 1.53 µM (inactive) | > 20.3 µM (inactive) | 2.18 µM (inactive) | 0.249 µM (active) | 0.252 µM (active) | 2.3 µM (inactive)
8 | Cc1ccc(NC(=O)c2cccc(OP(=O)(O)Nc3ccc(C)cc3)c2)cc1 | > 100 µM (inactive) | > 100 µM (inactive) | 32.4 µM (inactive) | 74.1 µM (inactive) | 37.2 µM (inactive) | 20.2 µM (inactive) | > 100 µM (inactive) | > 100 µM (inactive) | > 100 µM (inactive) | > 100 µM (inactive) | > 100 µM (inactive) | > 100 µM (inactive) | > 100 µM (inactive) | > 100 µM (inactive) | > 100 µM (inactive) | > 100 µM (inactive) | > 100 µM (inactive) | > 100 µM (inactive) | > 100 µM (inactive) | > 100 µM (inactive)

Reference: ChEMBL document CHEMBL1201862, “PubChem BioAssay data set” (2004)
